Results: patent US20040121316A1 (priority 2002, published 2004)
Like-named read-outs stand apart in the source and are kept apart here.

How the values were obtained:
WT HIV-1 [1] = experiment: microbe, parasite or virus in culture; type: cell-based; details: Human immunodeficiency virus 1, MT4, read-out: Cell-based assay (MT-4) EC50/nM WT
[2] = tested on: recombinant HIV-1 10I 48V 54V 82A; experiment: microbe, parasite or virus in culture; type: cell-based; details: Human immunodeficiency virus 1, MT4, read-out: Cell-based assay (MT-4) EC50/nM 48V 54V 82A
[3] = tested on: recombinant HIV-1 46I 47V 50V; experiment: microbe, parasite or virus in culture; type: cell-based; details: Human immunodeficiency virus 1, MT4, read-out: Cell-based assay (MT-4) EC50/nM 47I 50V
[4] = tested on: recombinant HIV-1 30N 50S 82I 88D; experiment: microbe, parasite or virus in culture; type: cell-based; details: Human immunodeficiency virus 1, MT4, read-out: Cell-based assay (MT-4) EC50/nM 30N 82I 88D
[5] = tested on: recombinant HIV-1 10I 48V 71V 82A 90M; experiment: microbe, parasite or virus in culture; type: cell-based; details: Human immunodeficiency virus 1, MT4, read-out: Cell-based assay (MT-4) EC50/nM 48V 82A 90M
[6] = tested on: recombinant HIV-1 48V 54V 71V 82S; experiment: microbe, parasite or virus in culture; type: cell-based; details: Human immunodeficiency virus 1, MT4, read-out: Cell-based assay (MT-4) EC50/nM 48V 54V 82S
[7] = tested on: recombinant HIV-1 10I 84V 71V 73S 90M; experiment: microbe, parasite or virus in culture; type: cell-based; details: Human immunodeficiency virus 1, MT4, read-out: Cell-based assay (MT-4) EC50/nM 84V 90M
HIV-1 protease 84V90M = target: T1, HIV-1 protease 84V90M (Human immunodeficiency virus type 1 group M subtype B, UniProt P04585, I572V/L578M); experiment: Enzymatic assay, IC50 against 84V90M mutant protease; type: biochemical
T1 construct: synthetic hexapeptide substrate cleavage by HIV-1 protease

[8] = tested on: wild-type HIV-1 strain IIIB; experiment: microbe, parasite or virus in culture; type: cell-based; details: Human immunodeficiency virus 1, IIIB
in vitro = details: human
mutant HIV-1 I84V/L90M = experiment: Resistance Evaluation, I84V/L90M fold change; type: cell-based; details: EC50 of mutant I84V/L90M relative to wild type; class symbols
[9] = target: T2, recombinant HIV-1 protease (Human immunodeficiency virus type 1 group M subtype B, UniProt P04585); experiment: biochemical
T2 construct: Enzyme: recombinant HIV-1 protease expressed in E.Coli; purchased Bachem California, Inc. H-9040; host or cells: E. coli

WT HIV protease = target: T3, WT HIV protease (Human immunodeficiency virus type 1 group M subtype B, UniProt P04585); experiment: biochemical; design: species or system HIV-1
T3 construct: synthetic hexapeptide substrate cleavage by HIV-1 protease

84V90M HIV protease = 84V90M HIV protease (Human immunodeficiency virus type 1 group M subtype B, UniProt P04585, I572V/L578M); experiment: biochemical; design: species or system HIV-1
WT HIV-1 [10] = experiment: microbe, parasite or virus in culture; type: cell-based
HIV-1 84V90M = experiment: microbe, parasite or virus in culture; type: cell-based; details: MT-4, 84V90M, read-out: Cell-based assay (MT-4) EC50/nM 84V90M
HIV-1 30N82I88D = experiment: microbe, parasite or virus in culture; type: cell-based; details: MT-4, 30N82I88D, read-out: Cell-based assay (MT-4) EC50/nM 30N82I88D
HIV-1 48V54V82A = experiment: microbe, parasite or virus in culture; type: cell-based; details: MT-4, 48V54V82A, read-out: Cell-based assay (MT-4) EC50/nM 48V54V82A
HIV-1 46I50V = experiment: microbe, parasite or virus in culture; type: cell-based; details: MT-4, 46I50V, read-out: Cell-based assay (MT-4) EC50/nM 46I50V
[11] = Human immunodeficiency virus 1, read-out: Cell-based assay (MT-4) EC50/nM WT
[12] = Enzymatic assay, 84V90M, read-out: 84V90M IC50/nM
[13] = read-out: Cell-based assay (MT-4) EC50/nM WT

Question: For CCOP(=O)(CCNC(=O)Oc1ccc(CC2C(O)C(O)C(Cc3ccc(OC)cc3)N(Cc3ccc(O)cc3)C(=O)N2Cc2ccc(O)cc2)cc1)OCC (stereo not drawn) [OCH3/Ph-pOH/OCONH(CH2)2PO3Et2], which EC50 (WT HIV-1 [1]) is on record?
Answer: 33 nM

Question: What about the EC50 [2] of the same molecule?
Answer: 74 nM

Question: And the EC50 [3]?
Answer: 223 nM

Question: And the EC50 [4]?
Answer: 31 nM

Question: What about the EC50 [5] of the same molecule?
Answer: 55 nM

Question: What about the EC50 [6] of the same molecule?
Answer: 51 nM

Question: And the EC50 [7]?
Answer: 495 nM

Question: What about the IC50 (HIV-1 protease 84V90M) of the same molecule?
Answer: 49 nM

Question: Which results are given for CCOP(=O)(COc1ccc(CC(NC(=O)OC2COC3OCCC23)C(O)CN(CC(C)C)S(=O)(=O)c2ccc(OC)cc2)cc1)OCc1ccccc1 (stereo not drawn) [drawing 608 R1=OEt R2=OBn]?
Answer: EC50 [8]: < 50 nM; CC50 (in vitro): < 5000 nM

Question: Which EC50 [8] does the source give for COc1ccc(S(=O)(=O)N(CC(C)C)CC(O)C(Cc2ccc(OCP(=O)(O)O)cc2)NC(=O)OC2COC3OCCC23)cc1 (stereo not drawn) [drawing 608 R1=OH R2=OH] here?
Answer: 500 to 5000 nM

Question: What about the I84V/L90M fold change (mutant HIV-1 I84V/L90M) of the same molecule?
Answer: − (≦3)

Question: And the CC50 (in vitro)?
Answer: > 50000 nM

Question: For CCOC(=O)C(C)NP(=O)(COc1ccc(CC(NC(=O)OC2COC3OCCC23)C(O)CN(CC(C)C)S(=O)(=O)c2ccc(OC)cc2)cc1)NC(C)C(=O)OCC (stereo not drawn) [drawing 612 R1=Ala-Et R2=Ala-Et], which EC50 [8] is on record?
Answer: 50 to 500 nM

Question: And the I84V/L90M fold change (mutant HIV-1 I84V/L90M)?
Answer: − (≦3)

Question: What about the CC50 (in vitro) of the same molecule?
Answer: > 50000 nM

Question: Which Ki ([9]; Ki (nM)) does the source give for Nc1n[nH]c2ccc(CN3C(=O)N(Cc4cccc(OCP(=O)(O)O)c4)C(Cc4ccccc4)C(O)C(O)C3Cc3ccccc3)cc12 (stereo not drawn) [m-OCH2PO3H2] here?
Answer: 0.254 nM

Question: What about the IC50 (WT HIV protease) of the same molecule?
Answer: 8.3 nM

Question: And the IC50 (84V90M HIV protease)?
Answer: 33 nM

Question: And the EC50 (WT HIV-1 [10]; [11])?
Answer: > 12000 nM

Question: For Nc1n[nH]c2ccc(CN3C(=O)N(Cc4cccc(OCP(=O)(O)Oc5ccccc5)c4)C(Cc4ccccc4)C(O)C(O)C3Cc3ccccc3)cc12 (stereo not drawn) [m-OCH2PO3HPh], which Ki ([9]; Ki (nM), Enzymatic assay) is on record?
Answer: 0.644 nM

Question: And the IC50 (WT HIV protease)?
Answer: 17 nM

Question: What about the IC50 (84V90M HIV protease) of the same molecule?
Answer: 65 nM

Question: What about the EC50 (WT HIV-1 [10]; [11]) of the same molecule?
Answer: 1740 nM

Question: What about the EC50 (HIV-1 84V90M; Human immunodeficiency virus 1) of the same molecule?
Answer: > 6000 nM

Question: What does the source list for Nc1n[nH]c2ccc(CN3C(=O)N(Cc4cccc(OCP(=O)(Oc5ccccc5)Oc5ccccc5)c4)C(Cc4ccccc4)C(O)C(O)C3Cc3ccccc3)cc12 (stereo not drawn) [m-OCH2PO3Ph2]?
Answer: Ki ([9]; Ki (nM), Enzymatic assay): 0.543 nM; IC50 (WT HIV protease): 10 nM; IC50 (84V90M HIV protease): 42 nM; EC50 (WT HIV-1 [10]; [11]): 1350 nM; EC50 (HIV-1 84V90M; Human immunodeficiency virus 1): > 6000 nM; EC50 (HIV-1 30N82I88D; Human immunodeficiency virus 1): 1540 nM; EC50 (HIV-1 48V54V82A; Human immunodeficiency virus 1): 2180 nM; EC50 (HIV-1 46I50V; Human immunodeficiency virus 1): 3380 nM

Question: With CCCCOC(=O)C(C)NP(=O)(COc1cccc(CN2C(=O)N(Cc3ccc4[nH]nc(N)c4c3)C(Cc3ccccc3)C(O)C(O)C2Cc2ccccc2)c1)NC(C)C(=O)OCCCC (stereo not drawn) [m-bis-Ala-Bu] as the molecule, how does the Ki ([9]; read-out: Ki) read?
Answer: 1.28 nM

Question: What about the IC50 (WT HIV protease; read-out: WT IC50/nM) of the same molecule?
Answer: 18 nM

Question: What about the IC50 (84V90M HIV protease; [12]) of the same molecule?
Answer: 103 nM

Question: And the EC50 (WT HIV-1 [10]; [13])?
Answer: 1080 nM

Question: What about the EC50 (HIV-1 84V90M) of the same molecule?
Answer: > 6000 nM

Question: And the EC50 (HIV-1 30N82I88D)?
Answer: 2360 nM

Question: What about the EC50 (HIV-1 48V54V82A) of the same molecule?
Answer: 1850 nM

Question: What about the EC50 (HIV-1 46I50V) of the same molecule?
Answer: 1540 nM

Question: With CCOC(=O)C(C)NP(=O)(COc1cccc(CN2C(=O)N(Cc3ccc4[nH]nc(N)c4c3)C(Cc3ccccc3)C(O)C(O)C2Cc2ccccc2)c1)NC(C)C(=O)OCC (stereo not drawn) [m-bis-Ala-Et] as the molecule, how does the Ki ([9]; read-out: Ki) read?
Answer: 1.99 nM

Question: And the IC50 (WT HIV protease; read-out: WT IC50/nM)?
Answer: 31 nM

Question: What about the IC50 (84V90M HIV protease; [12]) of the same molecule?
Answer: 202 nM

Question: What about the EC50 (WT HIV-1 [10]; [13]) of the same molecule?
Answer: 5620 nM

Question: What about the EC50 (HIV-1 84V90M) of the same molecule?
Answer: > 6000 nM

Question: What about the EC50 (HIV-1 30N82I88D) of the same molecule?
Answer: 1850 nM

Question: With Nc1n[nH]c2ccc(CN3C(=O)N(Cc4ccc(OCP(=O)(O)O)cc4)C(Cc4ccccc4)C(O)C(O)C3Cc3ccccc3)cc12 (stereo not drawn) [p-OCH2PO3H2] as the molecule, how does the Ki ([9]; Ki (nM)) read?
Answer: > 5 nM

Question: What about the IC50 (WT HIV protease) of the same molecule?
Answer: 551 nM

Question: And the IC50 (84V90M HIV protease)?
Answer: 1660 nM

Question: And the EC50 (WT HIV-1 [10]; [11])?
Answer: > 12000 nM
